Laboratory results as given in PMC11043318, “Quantification of biochemical PSA dynamics after radioligand therapy with [^177Lu]Lu-PSMA-I&T using a population pharmacokinetic/pharmacodynamic model” (EJNMMI Physics, 2024).
Values joined by “and” are separate entries in the source; they are usually repeats but may differ in a detail not shown here. Identical values can stand only once. One block for each compound: values may come before it.

Experiments:
[1] = cited from earlier work
From the text: Comparison of rate constants for drug transfer between different compartments is hampered by absolute radioactivity amounts being relatively small in tumors compared to organs (due to volume differences between these compartments). […] Though differences are small, these might be caused by different treatment intervals (two-week instead of six-week interval) for most patients.

[2] = Population pharmacokinetic model from post-administration SPECT/CT data; type: in vivo, human
[3] = cited from earlier work; remark: listed apart in the source
From the text: Though differences are small, these might be caused by different treatment intervals (two-week instead of six-week interval) for most patients.

[4] = test system: serum prostate-specific antigen (PSA); assay: Population PKPD model of PSA dynamics after therapy; type: in vivo, human; settings: estimate (RSE%)
From the text: Data from patients treated in our hospital with [^177Lu]Lu-PSMA-I&T between September 2019 and January 2023 were collected for population PK model development. This retrospective data collection was approved by the Institutional Review Board of the Netherlands Cancer Institute (IRBd21288). Baseline patient characteristics were collected, such as age, body weight, height and serum creatinine clearance. In addition, individual PSA concentrations were collected and used as input for the PD model. As pre-treatment PSA value, only the last observation prior to [^177Lu]Lu-PSMA-I&T treatment (< 6 weeks) was included in the analysis, to avoid taking into account PSA changes due to other previous treatments. For the same reason, PSA observations after the last [^177Lu]Lu-PSMA-I&T administration were collected up to start of a new treatment.
A sequential modelling approach was used for PKPD model development, where an additional compartment was considered to describe PSA concentrations over time. Baseline PSA concentrations were estimated as a typical population value with an estimated IIV on this population baseline value. […] For Edrug, a linear function, an Emax function and a sigmoid Emax model were evaluated (see Eqs. 9–11, respectively).9 Edrug=kD∗Ctumor 10 Edrug=EMAX∗Ctumor/EC50+Ctumor 11 Edrug=EMAX∗Ctumorγ/EC50γ+Ctumorγ where kD is a drug-induced effect, Ctumor is the estimated concentration in the tumor compartment (taking into account radioactive decay), EMAX is the maximal drug induced effect of [^177Lu]Lu-PSMA-I&T on PSA, EC50 is the [^177Lu]Lu-PSMA-I&T concentration at which half of the maximum drug-induced effect on PSA occurs and γ is a hill coefficient (that was both estimated and fixed during model development).
Therefore, a delay of the PD effect after administration of [^177Lu]Lu-PSMA-I&T (Edelayed) was evaluated using an effect compartment with a linear drug effect (Eq. 8) on the PSA compartment. This delayed effect was assessed both solely as well as additional to the direct effect (Edrug). […]

[5] = test system: serum prostate-specific antigen (PSA); assay: Tumor exposure (AUC) threshold for PSA response, linear regression; type: in vivo, human; settings: Bayesian estimated tumor AUC of first two cycles
From the text: As an exploratory analysis, the final population PKPD model was used to assess a potential tumor exposure threshold required to achieve treatment response. The individually (Bayesian) estimated area under the curve (AUC) based on the first two treatment cycles was related to the change in PSA (%) for each patient. Since PSA is a continuous response measure and there is no defined moment to determine response, two endpoints for response were considered: nadir PSA and the last measured PSA value after the first two treatment cycles. A linear regression was performed to assess the relationship and was subsequently used to define tumor AUC thresholds required to achieve treatment response (≥ 50% decrease in PSA). Formal statistical testing was not possible, since individual (Bayesian) estimates of tumor exposure cannot be considered independent variables.

[6] = fraction of tumor uptake rate in cycle 1, estimate (RSE%)
[7] = population PK model, covariate exponent, estimate (RSE%)
[8] = population PK model, estimate (RSE%)

Compound: O=C(O)CC[C@H](NC(=O)N[C@@H](CCCCNC(=O)[C@H](Cc1ccc2ccccc2c1)NC(=O)[C@H]1CC[C@H](CNC(=O)CN2CCN(CC(=O)O)CCN(CC(=O)O)CCN(CC(=O)O)CC2)CC1)C(=O)O)C(=O)O [[^177Lu]Lu-PSMA-617, metal not drawn]
Initial volume of distribution [1]: 22 L | Reported clearance [1]: 2.04 L/h | Excretion rate ([1]; population PK model): 0.288 h⁻¹

Tumor uptake rate in cycle 2 compared to cycle 1 ([2]; all 76 patients): 73% and 73.1% | Tumor uptake rate in cycle 3 compared to cycle 1 ([2]; all 76 patients): 50% and 49.8% | Tumor uptake rate in cycle 4–7 compared to cycle 1 ([2]; all 76 patients): 44% and 43.6% | Salivary gland uptake in cycle three compared to cycle one ([2]; cycle effect tested on k12): 98.1% | Salivary gland uptake in cycle two compared to cycle one ([2]; cycle effect tested on k12): 84.6% | Estimated half-life, tumors ([2]; decay-corrected data): ~46 h | Cycle 2 on k14 (fractional change) [2, 6]: 0.731 (8.1%) | Cycle 3 on k14 (fractional change) [2, 6]: 0.498 (11.3%) | Cycle 4–7 on k14 (fractional change) [2, 6]: 0.436 (11.6%) | Increase of tumor uptake rate with a two-times higher tumor volume ([2]; from power covariate 1.08 on k14): 2.11 fold | Tumor uptake rate in cycle 2 compared to cycle 1, excluding '4 × 6' patients ([2]; only '2 × 2 – repeated after twelve weeks' scheme): 82.9% | k10 (renal excretion rate constant from central compartment) ([2]; population PK model, 76 mCRPC patients, ~7.4 GBq per cycle, SPECT/CT, estimate (RSE%)): 0.253 (5.2%) h^−1 | k12 (uptake rate central to salivary glands) ([2]; population PK model, 76 mCRPC patients, estimate (RSE%)): 0.0105 (9.2%) h^−1 | Renal clearance ([2]; population PK model, mCRPC patients): 2.61 L/h | Tumor volume on k12 (power covariate function) [2, 7]: 0.0910 (30.0%) | Tumor volume on k14 (power covariate function) [2, 7]: 1.08 (7.5%) | k13 (uptake rate central to kidneys) [2, 8]: 0.0321 (6.9%) h^−1 | k14 (uptake rate central to tumors) [2, 8]: 0.00967 (9.9%) h^−1 | k15 (central to remaining tissue) [2, 8]: 0.275 (6.8%) h^−1 | k21 (salivary glands to central) [2, 8]: 0.0629 (6.3%) h^−1 | k31 (kidneys to central) [2, 8]: 0.0625 (5.4%) h^−1 | k41 (tumors to central) [2, 8]: 0.0150 (3.4%) h^−1 | k51 (remaining tissue to central) [2, 8]: 0.0247 (6.5%) h^−1 | Estimated half-life, organs-at-risk ([2]; salivary glands and kidneys, decay-corrected data): approximately 11 h | BMAX compartment 2 (maximum binding capacity, salivary glands) ([2]; saturable uptake into salivary glands, estimate (RSE%)): 134 (15.5%) MBq
Compound: O=C([O-])CC[C@H](NC(=O)N[C@@H](CCCCNC(=O)CCCCCCC(=O)NCCCC[C@@H](NC(=O)[C@@H](Cc1ccccc1)NC(=O)[C@@H](Cc1ccc(O)c(I)c1)NC(=O)CC[C@H](C(=O)[O-])N1CCN(CC(=O)[O-])CCN(CC(=O)[O-])CCN(CC(=O)[O-])CC1)C(=O)[O-])C(=O)[O-])C(=O)[O-].[177Lu+3].[H+].[H+].[H+].[H+].[H+] [[^177Lu]Lu-PSMA-I&T]
Average tumor absorbed dose, fourth cycle relative to first cycle [3]: 68% | Average tumor absorbed dose, second cycle relative to first cycle [3]: 94% | Average tumor absorbed dose, third cycle relative to first cycle [3]: 77% | Average tumor absorbed dose, first cycle ([3]; n = 5–15 patients per cycle): 3.5 Gy/GBq | Average tumor absorbed dose, fourth cycle ([3]; n = 5–15 patients per cycle): 2.4 Gy/GBq | Average tumor absorbed dose, second cycle ([3]; n = 5–15 patients per cycle): 3.3 Gy/GBq | Average tumor absorbed dose, third cycle ([3]; n = 5–15 patients per cycle): 2.7 Gy/GBq | Rate constant effect compartment (ke0) ([4]; first-order delay to effect compartment): 0.00128 (13.1%) h^−1 | Delayed drug-induced effect (kD, delay) ([4]; linear effect from effect compartment on PSA): 0.0000328 (17.4%) L·day^−1·MBq^−1 | Direct drug-induced effect (kD, direct) ([4]; linear effect of tumor concentration on PSA elimination): 0.00335 (40.1%) L·day^−1·GBq^−1 | Threshold tumor AUC for ≥ 50% decrease in PSA, last measured PSA after first two cycles [5]: 1188 MBq·h/mL | Threshold tumor AUC for ≥ 50% decrease in PSA, nadir PSA as outcome [5]: 709.5 MBq·h/mL
